Experimental data reported in BindingDB's records for patent US9090621 (Principia Biopharma, 2015).

Molecular target: Tyrosine-protein kinase BTK (Homo sapiens, UniProt Q06187)
Experiment: Enzymatic Activity Assay
Details: 25 °C
Protocol: A Caliper-based kinase assay (Caliper Life Sciences, Hopkinton, Mass.) was used to measure inhibition of Btk kinase activity of a compound of Formula (IA), (I′) or (I). […] The reaction was then terminated with EDTA, final concentration 20 mM and the phosphorylated reaction product was quantified on a Caliper Desktop Profiler (Caliper LabChip 3000).

Tyrosine-protein kinase BTK, sequence (Q06187 whole entry): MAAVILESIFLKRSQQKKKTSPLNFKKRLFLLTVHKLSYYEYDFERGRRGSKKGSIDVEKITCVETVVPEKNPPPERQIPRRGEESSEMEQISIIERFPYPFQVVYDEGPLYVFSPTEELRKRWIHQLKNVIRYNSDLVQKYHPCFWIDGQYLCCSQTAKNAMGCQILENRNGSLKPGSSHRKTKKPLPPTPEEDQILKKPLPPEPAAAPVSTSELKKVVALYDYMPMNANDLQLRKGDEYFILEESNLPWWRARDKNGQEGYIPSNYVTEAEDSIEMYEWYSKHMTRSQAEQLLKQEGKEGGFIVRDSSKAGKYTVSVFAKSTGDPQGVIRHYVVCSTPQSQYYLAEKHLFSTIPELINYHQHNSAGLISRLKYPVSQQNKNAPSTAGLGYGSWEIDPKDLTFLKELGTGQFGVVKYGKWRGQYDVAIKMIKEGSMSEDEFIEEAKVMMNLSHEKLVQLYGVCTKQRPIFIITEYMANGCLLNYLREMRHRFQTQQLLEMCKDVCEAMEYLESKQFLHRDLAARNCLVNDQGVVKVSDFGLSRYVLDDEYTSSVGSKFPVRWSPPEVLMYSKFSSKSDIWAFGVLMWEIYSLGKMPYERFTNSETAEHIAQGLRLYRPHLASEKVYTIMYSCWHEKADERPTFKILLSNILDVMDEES

IC50: 1 nM
SMILES: COc1cc(-c2nn(C3CCCN(C(=O)C(C#N)=CC4CC4)C3)c3ncnc(N)c23)ccc1Oc1ccc(Cl)c(Cl)c1 (stereo unspecified) [US9090621, 5]
